Legend:
[1] = increased salt concentrations (Fairbanks and Burch, 1970); cited from earlier work
peroxidasin = target: T1, peroxidasin (Mus musculus, UniProt Q3UQ28); test: In vitro basement membrane (uncrosslinked PFHR-9 matrix) reaction with halides and H2O2; assay type: biochemical
T1 construct: Cultured murine PFHR9 cells synthesize collagen IV networks that contain sulfilimine crosslinks due to the activity of PXDN; endogenous in cells; host or cells: PFHR-9 cells (isolated matrix from KI-treated culture)
T1 sequence (Q3UQ28 24-1475): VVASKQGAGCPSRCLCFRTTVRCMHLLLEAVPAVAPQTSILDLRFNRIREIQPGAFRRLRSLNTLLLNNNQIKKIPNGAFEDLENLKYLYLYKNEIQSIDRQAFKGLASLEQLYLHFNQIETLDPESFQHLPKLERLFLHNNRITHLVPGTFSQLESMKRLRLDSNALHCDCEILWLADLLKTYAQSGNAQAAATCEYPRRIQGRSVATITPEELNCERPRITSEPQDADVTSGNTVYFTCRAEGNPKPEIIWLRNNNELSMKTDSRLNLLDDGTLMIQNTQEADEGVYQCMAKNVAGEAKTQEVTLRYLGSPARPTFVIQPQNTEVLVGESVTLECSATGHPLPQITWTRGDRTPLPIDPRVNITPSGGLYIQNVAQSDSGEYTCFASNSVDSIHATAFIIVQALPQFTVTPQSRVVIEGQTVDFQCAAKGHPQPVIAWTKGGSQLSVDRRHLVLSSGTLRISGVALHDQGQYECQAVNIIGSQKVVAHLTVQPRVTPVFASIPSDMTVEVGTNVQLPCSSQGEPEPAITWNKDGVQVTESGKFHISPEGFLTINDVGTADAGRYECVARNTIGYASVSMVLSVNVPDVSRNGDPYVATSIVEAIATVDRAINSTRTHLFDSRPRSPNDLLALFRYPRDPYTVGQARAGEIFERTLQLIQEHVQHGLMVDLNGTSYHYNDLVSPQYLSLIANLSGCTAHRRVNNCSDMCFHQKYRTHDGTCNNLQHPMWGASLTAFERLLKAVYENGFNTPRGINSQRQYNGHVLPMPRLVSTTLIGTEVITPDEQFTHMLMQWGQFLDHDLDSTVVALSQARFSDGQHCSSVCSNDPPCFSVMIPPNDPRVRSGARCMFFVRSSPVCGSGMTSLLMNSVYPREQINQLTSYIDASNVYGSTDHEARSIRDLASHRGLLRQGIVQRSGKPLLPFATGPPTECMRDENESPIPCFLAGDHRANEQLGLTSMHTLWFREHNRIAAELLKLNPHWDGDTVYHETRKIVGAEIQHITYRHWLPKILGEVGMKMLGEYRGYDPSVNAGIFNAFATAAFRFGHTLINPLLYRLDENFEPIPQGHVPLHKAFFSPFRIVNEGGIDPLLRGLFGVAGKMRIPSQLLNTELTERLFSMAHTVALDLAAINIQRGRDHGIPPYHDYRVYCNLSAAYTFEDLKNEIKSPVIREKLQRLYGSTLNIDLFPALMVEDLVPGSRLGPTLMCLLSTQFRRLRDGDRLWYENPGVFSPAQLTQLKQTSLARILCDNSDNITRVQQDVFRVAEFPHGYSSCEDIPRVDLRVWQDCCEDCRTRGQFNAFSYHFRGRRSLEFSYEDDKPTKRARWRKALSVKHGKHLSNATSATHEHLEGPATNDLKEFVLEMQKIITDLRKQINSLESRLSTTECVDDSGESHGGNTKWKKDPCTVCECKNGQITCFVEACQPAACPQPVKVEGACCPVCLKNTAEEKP
Experimental: (FIG. 8A) Matrix pellets isolated from KI-treated PFHR9 cell culture were extensively washed into 10 mM phosphate buffer (pH 7.4) supplemented with 100 mM KF to maintain ionic strength. Potassium salts of Cl— or Br— were added in indicated amounts. 1 hr reactions at 37° C. were initiated by addition of H2O2 to 1 mM and stopped by freezing at −20° C. Coomassie blue-stained gels after collagenase digestion of the samples and SDS-PAGE (FIG. 8B) Schematic of Br-Free chloride salt purification apparatus and setup. […] Reagent KCl was commercially obtained and unaltered prior to analysis. 100 mM solutions were made with 18MΩ deionized water. (FIG. 8C) Coomassie blue stained gel of collagenase digested PFHR-9 matrix reaction assay. Reaction buffered contained 10 mM phosphate buffer (pH 7.4), 100 mM Br-Free or Commercially obtained reagent grade KCl, as well as 1 mM H2O2 and 200 μM PHG where appropriate. (FIG. 8D) SDS-PAGE and coomassie blue stain of hPXDN (27.25 nM) and NC1 domain (1.3 μM) reaction and subsequent densiometric quantitation of S═N bond formation stiochiometry in response to NaBr addition. hPXDN and PFHR-9 NC1 domain were prepared and purified as described (5), except with all buffers for all purification steps (dialysis, chromatography, gradient ultracentrifugation) made with Br-Free chloride salts. Reactions were run for 10 minutes at 37° C. with 10 μM H2O2 as the terminal oxidant. Dose-response curve run in the presence of 1× Br-Free PBS. Reactions were quenched with 0.2 mg/ml Catalase, 20 mM Methionine, and 1 mM PHG. EC50 value±95% C.I. from two independent experiments with each data point plotted and fit.
Uncrosslinked PFHR9 matrix was extensively washed into 10 mM phosphate buffer (pH 7.4) that was supplemented with 100 mM KF to maintain ionic strength. One hour reactions at 37° C. were initiated by addition of H2O2 to 1 mM and stopped by freezing at −20° C. […] Samples were digested with collagenase at 37° C. overnight and visualized by SDS-PAGE using 12% gels under non-reducing conditions with Coomassie staining.
PFHR-9 cells treated with potassium iodide (1-10 mM) to eliminate NC1 hexamer crosslinks were used for basement membrane isolation. To test halide dependency, the inventors established halide-free conditions by washing extensively (at least five times) with 10 mM sodium phosphate pH 7.4. To try to extract or inactivate endogenous basement membrane peroxidase activity, the inventors extracted the matrix preparation twice with 2M guanidine-Cl, 50 mM Tris-Cl pH 7.5 and 10 mM EDTA-Na pH 8 followed by extensive washing with 1×PBS. Basement membrane was resuspended in the desired buffer with or without cofactors and inhibitors to examine in vitro NC1 crosslinking under various conditions. Basement membranes were collagenase solubilized to delineate collagen IV NC1 sulfilimine crosslink formation with SDS-PAGE and Coomassie blue staining membrane was isolated, washed extensively and resuspended in 1×PBS. Azide (0-10 mM) and 1 mM H2O2 were added and allowed to react for 1 h at 37° C. The matrix was pelleted, washed extensively with 1×PBS and solubilized with 1×PBS plus 2% (w/v) SDS. Solubilized proteins were reacted with 100 μM Tris[(1-benzyl-1H-1,2,3-triazol-4-yl)methyl]amine (Anaspec), 1 mM Tris(2-carboxyethyl)phosphine hydrochloride (ThermoFisher Pierce), 1 mM cupric sulfate and 100 μM biotin alkyne (PEG4 carboxamide-propargyl biotin; Life Technologies) for 1 h at 37° C. Click chemistry reactions were quenched with 1 mM 3′-azido-3′-deoxythymidine (Sigma). For avidin-HRP detection, samples were electrophoresed under reducing conditions, transferred to nitrocellulose membranes and probed with streptavidin-HRP according to manufacturer instructions (ThermoFisher Pierce). To isolate biotinylated proteins, the inventors precipitated click reaction products with two volumes of cold acetone to remove reactants, washed them with 70% (v/v) acetone and then resolubilized them in 1×PBS plus 2% SDS.

Q: Which “half-life in the fly” value [1] does the source give for Cl [chloride] here?
A: Its value is roughly 5 h.

Q: What about the “halide concentration permitting enzymatic crosslinking within purified matrix” value (peroxidasin) of the same compound?
A: The value was 100 mM.

Q: What about the “S═N bond formation in isolated matrix” value (peroxidasin; 10 mM phosphate pH 7.4, 100 mM KF, 1 mM H2O2, 1 h at 37° C.) of the same compound?
A: Its value is “remained inactive until 100 mM”.

Q: What about the “dimer formation with bromide-free chloride as halide source” value (peroxidasin; 100 mM Br-free chloride salt, 1 mM H2O2, isolated PFHR-9 matrix) of the same compound?
A: The value was “insufficient for the reaction”.

Q: And the “halide concentration at which crosslinked dimeric subunits formed” value (peroxidasin; H2O2 added to uncrosslinked basement membrane without other halides (FIG. 3B))?
A: The value was roughly 100 mM.
